{
  "source": "patent US20140171371A1",
  "about": "“Compositions And Methods For The Diagnosis of Schizophrenia” (The Trustees of Columbia University in the City of New York, priority 2011, published 2014)",
  "system": "lymphoblastoid cell lines",
  "test": "Cyclic AMP accumulation in lymphoblastoid cell lines in response to another GPCR agonist (specificity control)",
  "assay_type": "cell-based, human",
  "settings": "PGE2 1 μM + forskolin 10 μM, IBMX 200 μM pre-incubation, 10 min, fold-change over forskolin/IBMX alone",
  "procedure": "Reactions were terminated by pelleting the cells, aspiration of the medium and addition of 100 μl of cold 7.5% (wt/vol) trichloroacetic acid (TCA). Cyclic AMP content in TCA extracts was determined by radioimmunoassay and normalized to the number of cells per well. […] Results presented for each subject represents the mean and standard error of at least ten replicates. Standard error and P-values for pooled results were computed across individuals (FIG. 3).",
  "data": [
    {"smiles": "CCCCC[C@H](O)/C=C/[C@H]1[C@H](O)CC(=O)[C@@H]1C/C=C\\CCCC(=O)O", "note": "[prostaglandin E2]", "values": [
      {"measurement": "cAMP accumulation in response to agonist, 7q36.3 duplication carriers compared to controls", "value": "no group difference"},
      {"measurement": "cAMP accumulation in response to agonist, 7q36.3 duplication carriers compared to controls", "setting": "listed as PGE2", "value": "No difference"},
      {"measurement": "cAMP accumulation in response to agonist, 7q36.3 duplication carriers compared to controls", "setting": "listed as Prostaglandin E2", "value": "No significant differences"}
    ]}
  ]
}
